Source: patent US6943183B2 (Pfizer Inc, priority 2000, dated 2005)

The molecules below were run against T1, SF9 affinity purified rat FPT (Rattus norvegicus, UniProt Q02293+Q04631) (assay: PFT (FPT) inhibitory activity assay, radiolabeled farnesyl pyrophosphate and biotinyl peptide, streptavidin beads). Settings: HEPES buffer pH 7.4, 30° C., 30 minutes; read-out: FTase IC50.
T1 construct: made in house; host or cells: Sf9 insect cells
Format: biochemical
Description: The PFT or FPT inhibitory activity of compounds of the present invention were assayed in HEPES buffer (pH 7.4) containing 5 mM potassium phosphate and 20 μM ZnCl2. The solution also contained 5 mM DTT (dithiothreitol), 5 mM MgCl2, and 0.1% PEG 8000. Assays were performed in 96 well plates (Wallec) and employed solutions composed of varying concentrations of a compound of the present invention in 10% DMSO (dimethylsulfoxide). […] After incubation at 30° C. for 30 minutes, the reaction was terminated by diluting the reaction 2.5-fold with a stop buffer containing 1.5 M magnesium acetate, 0.2 M H3PO4, 0.5% BSA (bovine serum albumin), and strepavidin beads (Amersham) at a concentration of 1.3 mg/mL. […] The assay was also carried out without 5 mM potassium phosphate.

Molecule | IC50 [nM]
COc1cc(OC)cc(OCc2c(O[C@H](Cn3ccnc3)c3ccccc3)ccc3c2CCCC3=O)c1 [Compound 71, 6-((1S)-2-imidazolyl-1-phenylethoxy)-5-[(3,5-dimethoxyphenoxy)methyl]-2,3,4-trihydronaphthalen-1-one] | 4
O=C(O)c1ccc(S(=O)(=O)Cc2c(O[C@H](Cn3ccnc3)c3ccccc3)ccc3c2CCCC3=O)cc1 [Compound 160, 4-{[(2-{[(1S)-2-(1H-Imidazol-1-yl)-1-phenylethyl]oxy}-5-oxo-5,6,7,8-tetrahydro-1-naphthalenyl)methyl]sulfonyl}benzoic Acid] | 10
COC(=O)CSCc1c(O[C@H](Cn2ccnc2)c2ccccc2)ccc2c1CCCC2=O [Compound 10b, [2-(2-Imidazol-1-yl-1(S)-phenyl-ethoxy)-5-oxo-5,6,7,8-tetrahydro-naphthalen-1-ylmethylsulfanyl]-acetic acid methyl ester] | 2.5
O=C1CCCc2c1ccc(O[C@H](Cn1ccnc1)c1ccccc1)c2Cc1ccccc1 [Compound 45, 6-((1S)-2-imidazolyl-1-phenylethoxy)-5-benzyl-2,3,4-trihydro-naphthalen-one] | 2
O=C(NCCO)c1cccc(S(=O)(=O)Cc2c(O[C@H](Cn3ccnc3)c3ccccc3)ccc3c2CCCC3=O)c1 [Compound 176, N-(2-Hydroxyethyl)-3-{[(2-{[(1S)-2-(1H-imidazol-1-yl)-1-phenylethyl]oxy}-5-oxo-5,6,7,8-tetrahydro-1-naphthalenyl)methyl]sulfonyl}benzamide] | 7
O=C1CCCc2c1ccc(O[C@H](Cn1ccnc1)c1ccccc1)c2CN1CCN(c2ccccc2)CC1 [Compound 146, 6-((S)-2-Imidazol-1-yl-1-phenyl-ethoxy)-5-(4-phenyl-piperazin-1-ylmethyl)-3,4-dihydro-2H-napthalen-1-one] | 34
O=C1CCCc2c1ccc(O[C@H](Cn1ccnc1)c1ccccc1)c2Oc1ccccc1 [Compound 46, 6-((1S)-2-imidazolyl-1-phenylethoxy)-5-phenoxy-2,3,4-trihydronaphthalen-1-one] | 37
O=C(NC1CC1)c1ccc(S(=O)(=O)Cc2c(O[C@H](Cn3ccnc3)c3ccccc3)ccc3c2CCCC3=O)cc1 [Compound 223, N-Cyclopropyl-4-{[(2-{[(1S)-2-(1H-imidazol-1-yl)-1-phenylethyl]oxy}-5-oxo-5,6,7,8-tetrahydro-1-naphthalenyl)methyl]sulfonyl}benzamide] | 0.24
COC(=O)c1ccccc1OCc1c(O[C@H](Cn2ccnc2)c2ccccc2)ccc2c1CCCC2=O [Compound 81, Methyl 2-{[2-((1S)-2-imidazolyl-1-phenylethoxy)-5-oxo-6,7,8-trihydronaphthyl]methoxy}benzoate] | 4
CN(C)CCNC(=O)c1ccc(SCc2c(O[C@H](Cn3ccnc3)c3ccccc3)ccc3c2CCCC3=O)cc1 [Compound 177, N-[2-(Dimethylamino)ethyl]-4-{[(2-{[(1S)-2-(1H-imidazol-1-yl)-1-phenylethyl]oxy}-5-oxo-5,6,7,8-tetrahydro-1-naphthalenyl)methyl]sulfanyl}benzamide] | 3
CCOc1ccc(OCc2c(O[C@H](Cn3ccnc3)c3ccccc3)ccc3c2CCCC3=O)cc1 [Compound 79] | 0.8
CC(=O)N(Cc1c(O[C@H](Cn2ccnc2)c2ccccc2)ccc2c1CCCC2=O)c1ccc(C)cc1 [Compound 144, N-[2-((S)-2-Imidazol-1-yl-1-phenyl-ethoxy)-5-oxo-5,6,7,8-tetrahydro-naphthalen-1-ylmethyl]-N-β-tolyl-acetamide] | 35
C=CCNC(=O)c1cccc(S(=O)(=O)Cc2c(O[C@H](Cn3ccnc3)c3ccccc3)ccc3c2CCCC3=O)c1 [Compound 205, N-Allyl-3-{[(2-{[(1S)-2-(1H-imidazol-1-yl)-1-phenylethyl]oxy}-5-oxo-5,6,7,8-tetrahydro-1-naphthalenyl)methyl]sulfonyl}benzamide] | 0.2
Cc1cc(C)c(OCc2c(O[C@H](Cn3ccnc3)c3ccccc3)ccc3c2CCCC3=O)c(C)c1 [Compound 89, 6-((1S)-2-Imidazolyl-1-phenylethoxy)-5-[(2,4,6-trimethylphenoxy)methyl]-2,3,4-trihydronaphthalen-1-one] | 7
CCCCC(Cn1ccnc1)Oc1ccc2c(c1CS(=O)(=O)c1ccccc1)CCCC2=O (stereo not drawn) [Compound 63m, 6-{[1-(1H-Imidazol-ylmethyl)pentyl]oxy}-5-[(phenylsulfonyl)methyl]-3,4-dihydro-1(2H)-naphthalenone] | 1
COCCNC(=O)c1ccc(SCc2c(O[C@H](Cn3ccnc3)c3ccccc3)ccc3c2CCCC3=O)cc1 [Compound 261] | 0.2
6-((1S)-2-Indazolyl-1-phenylethoxy)-5-amino-2,3,4-trihydronaphthalen-1-one [Compound 37] | 13
Cc1cccc(OCc2c(O[C@H](Cn3ccnc3)c3ccccc3)ccc3c2CCCC3=O)c1 [Compound 99] | 5

Further molecules by falling IC50, results first:

IC50 [nM] | Molecule
20 | CN(C)CCNC(=O)c1ccc(S(=O)(=O)Cc2c(O[C@H](Cn3ccnc3)c3ccccc3)ccc3c2CCCC3=O)cc1 [Compound 181, N-[2-(Dimethylamino)ethyl]-4-{[(2-{[(1S)-2-(1H-imidazol-1-yl)-1-phenylethyl]oxy}-5-oxo-5,6,7,8-tetrahydro-1-naphthalenyl)methyl]sulfonyl}benzamide]
8 | C=CCOCc1c(O[C@H](Cn2ccnc2)c2ccccc2)ccc2c1CCCC2=O [Compound 18, 6-((1S)-2-imidazolyl-1-phenylethoxy)-5-(prop-2-enyloxymethyl)-2,3,4-trihydronaphthalen-1-one]
6 | CN(C)CCNC(=O)c1ccccc1SCc1c(O[C@H](Cn2ccnc2)c2ccccc2)ccc2c1CCCC2=O [Compound 179, N-[2-(Dimethylamino)ethyl]-2-{[(2-{[(1S)-2-(1H-imidazol-1-yl)-1-phenylethyl]oxy}-5-oxo-5,6,7,8-tetrahydro-1-naphthalenyl)methyl]sulfanyl}benzamide]
6 | O=C1CCCc2c1ccc(O[C@H](Cn1ccnc1)c1ccccc1)c2COc1ccc(Oc2ccccc2)cc1 [Compound 97]
4 | Cc1nccn1CC(Oc1ccc2c(c1CCc1ccccc1)CCCC2=O)c1ccccc1 (racemic) [Compound 63o, (±)-6-[2-(2-Methyl-imidazol-yl)-1-phenyl-ethoxy]-5-phenethyl-3,4-dihydro-2H-naphthalen-1-one]
3.5 | O=C1CCCc2c1ccc(O[C@H](Cn1ccnc1)c1ccccc1)c2CNS(=O)(=O)c1ccc(F)cc1F [Compound 42b, 2,4-Difluoro-N-[2-((S)-2-imidazol-1-yl-1-phenyl-ethoxy)-5-oxo-5,6,7,8-tetrahydro-naphthalen-1-ylmethyl]-benzenesulfonamide; compound with trifluoro-acetic acid]
3 | O=C1CCCc2c1ccc(O[C@H](Cn1ccnc1)c1ccccc1)c2CSc1ccncc1 [Compound 8]
0.85 | O=C1CCCc2c1ccc(O[C@H](Cn1ccnc1)c1ccccc1)c2CCc1cccnc1 [Compound 26b, (S)-6-(-2-imidazol-1-yl-phenyl-ethoxy)-5-(2-pyridin-3-yl-ethyl)-3,4-dihydro-2H-naphthalen-1-one]
0.47 | O=C(NC1CCCC1)c1ccccc1S(=O)(=O)Cc1c(O[C@H](Cn2ccnc2)c2ccccc2)ccc2c1CCCC2=O [Compound 219, N-Cyclopentyl-2-{[(2-{[(1S)-2-(1H-imidazol-1-yl)-1-phenylethyl]oxy}-5-oxo-5,6,7,8-tetrahydro-1-naphthalenyl)methyl]sulfonyl}benzamide]
0.2 | C[C@@H](O)CNC(=O)c1ccccc1S(=O)(=O)Cc1c(O[C@H](Cn2ccnc2)c2ccccc2)ccc2c1CCCC2=O [Compound 202, N-[(2R)-2-Hydroxypropyl]-2-{[(2-{[(1S)-2-(1H-imidazol-1-yl)-1-phenylethyl]oxy}-5-oxo-5,6,7,8-tetrahydro-1-naphthalenyl)methyl]sulfonyl}benzamide]
0.2 | CC[C@H](CO)NC(=O)c1cccc(SCc2c(O[C@H](Cn3ccnc3)c3ccccc3)ccc3c2CCCC3=O)c1 [Compound 246, N-[(1R)-1-(Hydroxymethyl)propyl]-3-{[(2-{[(1S)-2-(1H-imidazol-1-yl)-1-phenylethyl]oxy}-5-oxo-5,6,7,8-tetrahydro-1-naphthalenyl)methyl]sulfanyl}benzamide]
0.2 | C#CCNC(=O)c1ccc(SCc2c(O[C@H](Cn3ccnc3)c3ccccc3)ccc3c2CCCC3=O)cc1 [Compound 212, 4-{[(2-{[(1S)-2-(1H-Imidazol-1-yl)-1-phenylethyl]oxy}-5-oxo-5,6,7,8-tetrahydro-1-naphthalenyl)methyl]sulfanyl}-N-(2-propynyl)benzamide]
0.2 | COCCNC(=O)c1ccccc1SCc1c(O[C@H](Cn2ccnc2)c2ccccc2)ccc2c1CCCC2=O [Compound 260, 2-{[(2-{[(1S)-2-(1H-Imidazol-1-yl)-1-phenylethyl]oxy}-5-oxo-5,6,7,8-tetrahydro-1-naphthalenyl)methyl]sulfanyl}-N-(2-methoxyethyl)benzamide]
0.2 | C[C@H](O)CNC(=O)c1ccccc1SCc1c(O[C@H](Cn2ccnc2)c2ccccc2)ccc2c1CCCC2=O [Compound 198, N-[(2S)-2-Hydroxypropyl]-2-{[(2-{[(1S)-2-(1H-imidazol-1-yl)-1-phenylethyl]oxy}-5-oxo-5,6,7,8-tetrahydro-1-naphthalenyl)methyl]sulfanyl}benzamide]
0.16 | O=C1CCCc2c1ccc(O[C@H](Cn1ccnc1)c1cccnc1)c2CS(=O)(=O)c1ccccn1 [Compound 63ba, 6-((S)-2-Imidazol-1-yl-1-pyridin-3-yl-ethoxy)-5-(pyridin-2-ylsulfonylmethyl)-3,4-dihydro-2H-napthalen-1-one]
